Measurements: patent US5486604A, “Cyclic ADP ribose antagonists” (Regents of the University of Minnesota, priority 1993, dated 1996)

Assays:
[1] = system: cADPR-sensitive Ca^+2 release; test: cADPR-induced Ca2+ release from L. pictus egg homogenates, Fluo 3; type: biochemical, Lytechinus pictus
[2] = system: cADPR-sensitive Ca^+2 release; test: cADPR-induced Ca2+ release from S. purpuratus egg homogenates, Fluo 3 as Ca2+ indicator; type: biochemical, Strongylocentrotus purpuratus
Description: FIG. 2 Inhibition of cADPR induced Ca^+2 release by 8-amino-cADPR Ca^+2 release from S. purpuratus homogenates (1.25%) was monitored using Fluo 3 as Ca^+2 indicator. (a) The effect of varying the concentration of cADPR on Ca^+2 release. (b) The inhibition of Ca^+2 release induced by 135 nM of cADPR by pre-treatment of the homogenates with 100 nM 8-amino-cADPR.
FIG. 3 Competitive inhibition of cADPR dependent Ca^+2 release by 8-amino-cADPR. Ca^+2 release from S. purpuratus homogenates (1.25%) induced by various concentrations of cADPR was measured in the presence and absence of 100 nM 8-amino-cADPR (8-amino-cADPR);
FIG. 5 Effectiveness of 8-amino-cADPR in blocking Ca^+2 release induced by cADPR. (a) Ca^+2 release from S. purpuratus homogenates (1.25%) induced by the addition of 95 nM cADPR was measured using Fluo 3 as Ca^+2 indicator. (b-d) After the Ca^+2 release had started, increasing amounts of 8-amino-cADPR (8-NH2) were added to give the final concentrations indicated in the Figure;
(§1) Homogenates from Strongylocentrotus purpuratus eggs were prepared as previously described (Lee, H. C. (1991) J. Biol. Chem. 266, 2276-2281, Lee, H. C. (1993) J. Biol. Chem. 268, 293-299). Briefly, eggs were washed once in artificial sea water, twice in Ca^+2 -free sea water containing 1 mM EGTA, twice in Ca^+2 -free sea water without EGTA, once with the homogenization buffer (GluIAG MPM) containing 250 mM N-methylglucamine, 250 mM potassium gluconate, 20 mM HEPES, and 1 mM MgCl2; pH titrated to 7.2 with acetic acid and resuspended with the same medium to 25% (v/v). The following additions were made: 10 μg/ml of leupeptin, 10 μg/ml of aprotinin, 50 μg/ml of soybean trypsin inhibitor, 2 units/ml of creatine kinase, 4 mM phosphocreatine and 0.5 mM ATP. The suspension was chilled on ice for 10-15 min and transferred to a beaker inside a cell disruption bomb (Parr Instrument Co., Ill.). The suspension was mixed continuously with a magnetic stirring bar while nitrogen pressure of 80 psi was applied for 10-30 seconds. The sudden decompression of the suspension as it was released from the bomb effectively homogenized the eggs. The homogenates were centrifuged for 12-14 seconds (13,000×g, 4° C.) in a microfuge (Fisher) and the supernatant was collected and stored frozen at -70 ° C. until use.
(§2) Frozen egg homogenates prepared as described above were thawed in a 17° C. water bath for 20-30 min and then diluted to 5% with the homogenization medium (GLuIM) containing 2 units/ml of creatine kinase, 4 mM phosphocreatine and 0.5 mM ATP. After incubating at 17° C. for one hour the homogenates were diluted sequentially to 2.5% and finally to 1.25% with the same medium. Following each dilution, the homogenates were incubated at 17° C. for one hour. After the last dilution, fluo 3 was added to a final concentration of 3 μM. Fluorescence was measured at 490 nm excitation and 535 nm emission using a Hitachi spectrofluorimeter (F-2000). Fluo 3 fluorescence intensity is directly related to the Ca^+2 concentration (Dargie, P. J., Agre, M. C., and Lee, Hon. C. (1990) Cell Regulation 1,279-290). In some Figures the Fluo 3 fluorescence intensity was calibrated with the addition of known amounts of Ca^ +2. All assays were done in a curvette maintained at 17° C. with a circulating water bath and its content continuously mixed with a magnetic stirring bar. The volume of homogenate used for each assay was 0.2 ml.

cADPR binding site = test: Specific binding of [32P]cADPR to sea urchin egg microsomes (filtration assay); design: species or system Lytechinus pictus
Description: FIG. 4 Competitive inhibition of ^32 P-cADPR binding by 8-amino-cADPR and cADPR. Specific binding of ^32 P-cADPR to L. pictus microsomes was measured in the presence of various concentrations of cADPR (filled squares) and 8-amino-cADPR (open squares). Total binding in the presence of a high concentration of cADPR (1.2 μM) was taken as non-specific binding (55 cpm) and was subtracted from all the values;
Specific binding of [^32 P]cADPR to sea urchin egg microsomes was determined by a filtration assay as described previously (Lee, H. C. (1991) J. Biol. Chem. 266, 2276-2281) with some modifications. L. pictus egg homogenates (1 ml) were dialyzed overnight against 1 liter of the homogenization buffer (GluIM listed above). After dialysis, the homogenates were centrifuged for 30 min in a microfuge and the supernatant containing microsomes was collected and diluted 20 fold with GluIM. About 40,000 cpm of [^32 P]cADPR (400 Ci/mmol) and various concentrations of either cADPR or 8-substituted analogs were incubated with the 20 fold diluted microsomes for 10 min at 4° C. in a volume of 0.1 ml. […] The filters were then washed with 4 ml of 10 % polyethylene glycol and the radioactivity on the filters was determined by liquid scintillation counting. […] The specific binding was determined as the total binding minus the binding in the presence of 1.2 μM of unlabeled cADPR. […]

[3] = system: caffeine induced Ca^+2 release; test: Caffeine induced Ca2+ release and its potentiation by cADPR, S. purpuratus homogenates; type: biochemical, Strongylocentrotus purpuratus
Description: FIG. 7 Inhibition of the potentiating effect of cADPR on caffeine induced Ca^+2 release. Ca^+2 release from S. purpuratus homogenates (1.25%) was measured using Fluo 3 as Ca^+2 indicator. (a) In the absence of cADPR, addition of 1 mM caffeine induced no Ca^+2 release (curve labeled 0). The presence of 20 nM cADPR (arrow labeled cADPR) greatly potentiated the Ca^+2 releasing activity of 1 mM caffeine (curve labeled 20).
as §1, §2

[4] = system: Ca^+2 induced Ca^+2 release; test: cADPR potentiation of divalent cation (Ca2+, Sr2+) induced Ca2+ release, S. purpuratus homogenates; type: biochemical, Strongylocentrotus purpuratus
Description: FIG. 6 Inhibition of the potentiating effect of cADPR on Ca^+2 release induced by divalent cations. […] release from S. purpuratus homogenates (1.25% ) was measured using Fluo 3 as Ca^+2 indicator. (a) Ca^+2 release was induced by 75 nM cADPR in the absence of 8-amino-cADPR (-8-NH2). Prior addition of 50 nM 8-amino-cADPR (+8 NH2) prohibited cADPR (75 nM) from releasing Ca^+2. (b) In the presence of 30 nM cADPR, addition of 0.4 nmol of Ca^+2 (arrow labeled Ca) induced further Ca^+2 release (-8-NH2). Prior addition of 50 nM 8-amino-cADPR blocked cADPR from potentiating the Ca^+2 induced Ca^+2 release (+8-NH2). (c) In the presence of 30 nM cADPR, addition of 2 nmol of Sr^+2 (arrow labeled Sr) induced further Ca^ +2 release (-8-NH2). […]
(§3) Frozen egg homogenates prepared as described above were thawed in a 17° C. water bath for 20-30 min and then diluted to 5% with the homogenization medium (GLuIM) containing 2 units/ml of creatine kinase, 4 mM phosphocreatine and 0.5 mM ATP. […] Fluorescence was measured at 490 nm excitation and 535 nm emission using a Hitachi spectrofluorimeter (F-2000). Fluo 3 fluorescence intensity is directly related to the Ca^+2 concentration (Dargie, P. J., Agre, M. C., and Lee, Hon. C. (1990) Cell Regulation 1,279-290). In some Figures the Fluo 3 fluorescence intensity was calibrated with the addition of known amounts of Ca^ +2. […]

[5] = system: Ca^+2 release induced by ryanodine; test: Ryanodine induced Ca2+ release, S. purpuratus homogenates; type: biochemical, Strongylocentrotus purpuratus
Description: FIG. 8 Inability of 8-amino-cADPR to block Ca^+2 release induced by ryanodine. Ca^+2 release from S. purpuratus homogenates (1.25%) was measured using Fluo 3 as Ca^+2 indicator. Ryanodine and 8-amino-cADPR(8-NH2) were added to the final concentrations as indicated;
as §1, with “The homogenates were centrifuged for 12-14 seconds (13,000×g, 4° C.) in a microfuge (Fisher) and the supernatant was collected and stored frozen at -70 ° C. until use.” left out
as §3

cADPR-sensitive release = conditions: pharmacological blockers of CICR; cited from earlier work
[6] = system: specific microsomal binding site for cADPR; conditions: cited from earlier work

N=c1c2nc(Br)n3c2ncn1[C@@H]1O[C@H](COP(=O)(O)OP(=O)(O)OC[C@H]2O[C@@H]3[C@H](O)[C@@H]2O)[C@@H](O)[C@H]1O [8-Br-cADPR]
concentrations required for antagonism, compared with 8-amino-cADPR ([1]; 40 nM cADPR): required micromolar concentrations | Ca^+2 release caused by the analog itself ([1]; 1 to 3.5 uM, L. pictus homogenates 2.5%): did not release | blockage of Ca^+2 release induced by 40 nM cADPR ([1]; prior addition of increasing concentrations, 1 to 3.5 uM): progressive blockage

[N-]=[N+]=Nc1nc2c(=N)n3cnc2n1[C@@H]1O[C@H](COP(=O)(O)OP(=O)(O)OC[C@H]2O[C@@H]3[C@H](O)[C@@H]2O)[C@@H](O)[C@H]1O [8-azido-cADPR]
antagonist potency rank ([1]; data not shown): between that of 8-amino-cADPR and 8-Br-cADPR

N=c1c2ncn3c2ncn1[C@@H]1O[C@H](COP(=O)(O)OP(=O)(O)OC[C@H]2O[C@@H]3[C@H](O)[C@@H]2O)[C@@H](O)[C@H]1O [cADPR, Cyclic ADP-ribose, reference compound]
EC50 ([2]; in the absence of the analog, read-out: half-maximal concentration for Ca^+2 release): ~90 nM | Kd (cADPR binding site; dialyzed L. pictus homogenates, 0-5 C, no ATP, read-out: apparent affinity constant derived from the binding data): ~1 nM | potentiation of caffeine (1 mM) induced Ca^+2 release ([3]; 20 nM cADPR, not sufficient to release Ca^+2 by itself): greatly increased the caffeine sensitivity

N=c1c2nc(N)n3c2ncn1[C@@H]1O[C@H](COP(=O)(O)OP(=O)(O)OC[C@H]2O[C@@H]3[C@H](O)[C@@H]2O)[C@@H](O)[C@H]1O [8-amino-cADPR]
effect on the concentration-response curve of cADPR ([2]; 100 nM 8-amino-cADPR present): shifted the concentration-response curve toward higher concentrations of cADPR | IC50 ([2]; 135 nM cADPR, read-out: concentration of antagonist at which the rate of Ca^+2 release induced by cADPR was reduced by half): ~9 nM | block of Ca^+2 release induced by cADPR ([2]; 150 nM analog added before 135 nM cADPR): virtually complete | Ca^+2 release caused by the analog itself ([2]; 150 nM final concentration, egg homogenates 1.25%): did not cause any | kind of antagonism of cADPR ([2]; inhibition overcome by increasing cADPR): reversible antagonist | block of Ca^+2 release induced by 75 nM cADPR ([2]; prior addition of 50 nM antagonist): total blockage | effect on ongoing Ca^+2 release when added after release had commenced ([2]; release activated by 95 nM cADPR, 100 nM antagonist): almost total cessation | competition for the [32P]cADPR binding sites (cADPR binding site; L. pictus egg microsomes, compared with unlabeled cADPR): as effective as cADPR itself | stimulated Ca^+2 release after 0.4 nmol Ca^+2 in the presence of 30 nM cADPR ([4]; 50 nM antagonist added before cADPR): absent | stimulated Ca^+2 release after Sr^+2 in the presence of 30 nM cADPR ([4]; prior addition of 50 nM antagonist, 2 nmol Sr^+2): blocked | block of Ca^+2 release induced by a high concentration of caffeine ([3]; 100 nM antagonist, 2.5 mM caffeine, data not shown): did not block | inhibition of cADPR (20 nM) potentiation of caffeine (1 mM) induced Ca^+2 release ([3]; prior addition of 10 nM antagonist): substantial inhibition | inhibition of cADPR (20 nM) potentiation of caffeine (1 mM) induced Ca^+2 release ([3]; prior addition of 100 nM antagonist): completely blocked | effect of antagonist on the Ca^+2 release activity of ryanodine ([5]; 100 nM antagonist): slightly stimulated | inhibition of Ca^+2 release induced by ryanodine ([5]; 100 nM antagonist): did not inhibit

CCN(CC)CCOC(=O)c1ccc(N)cc1 [procaine]
effect on the cADPR-sensitive release (cADPR-sensitive release): specifically inhibit

ryanodine [reference compound]
Ca^+2 release on addition to egg homogenates ([5]; ryanodine alone): concentration-dependent release

N.N.N.N.N.N.N.N.N.N.N.N.N.N.[Cl-].[Cl-].[Cl-].[Cl-].[Cl-].[Cl-].[O-2].[O-2].[Ru+3].[Ru+3].[Ru+4] [ruthenium red]
effect on the cADPR-sensitive release (cADPR-sensitive release): specifically inhibit

Cn1c(=O)c2c(ncn2C)n(C)c1=O [caffeine, reference compound]
Ca^+2 release by caffeine alone ([3]; 1 mM caffeine, absence of cADPR): did not produce any

inositol trisphosphate
competition for the specific microsomal binding site for cADPR, relative to cADPR [6]: at least a thousand times less effectively than cADPR
